Format in all cases: in vivo
One data set concerns Corn. Kind of data set: Control experiment, test in post-emergence stage, crop safety. Further details: key: Level 10: completely dead; Level 9: above 90% growth inhibition rate; Level 8: above 80% growth inhibition rate; Level 7: above 70% growth inhibition rate; Level 6: above 60% growth inhibition rate; Level 5: above 50% growth inhibition rate; Level 4: above 30% growth inhibition rate; Level 3: above 20% growth inhibition rate; Level 2: above 10% growth inhibition rate; Level 1: above 1-10% growth inhibition rate; Level 0: no effect. Particulars: 5-6 leaf stage, 15 g/ha, observe time 25 day. Here is the method: (§1) Test in post-emergence stage: seeds of monocotyledonous weeds and corn were put into a plastic pot loaded with soil, covered with 0.5-2 cm soil, and allowed to grow in good greenhouse environment. The test plants were treated at 5-6 leaf stage 4 weeks after sowing. The test compounds of the present invention were dissolved with acetone respectively, then added with tween 80, diluted by a certain amount of water to reach a certain concentration. The solution was sprayed to the plants by a spray tower. The test application rate was 15 g/ha and the observe time was 25 day.

The subject of the next data set is Digitaria sanguinalis. The data set can be described thus: Control experiment, test in post-emergence stage. Further details: key: Level 10: completely dead; Level 9: above 90% growth inhibition rate; Level 8: above 80% growth inhibition rate; Level 7: above 70% growth inhibition rate; Level 6: above 60% growth inhibition rate; Level 5: above 50% growth inhibition rate; Level 4: above 30% growth inhibition rate; Level 3: above 20% growth inhibition rate; Level 2: above 10% growth inhibition rate; Level 1: above 1-10% growth inhibition rate; Level 0: no effect. Particulars: 5-6 leaf stage, 15 g/ha, observe time 25 day. Here is the method: as §1

In another data set the test system is Setaria viridis. The data set can be described thus: Control experiment, test in post-emergence stage. Further details: key: Level 10: completely dead; Level 9: above 90% growth inhibition rate; Level 8: above 80% growth inhibition rate; Level 7: above 70% growth inhibition rate; Level 6: above 60% growth inhibition rate; Level 5: above 50% growth inhibition rate; Level 4: above 30% growth inhibition rate; Level 3: above 20% growth inhibition rate; Level 2: above 10% growth inhibition rate; Level 1: above 1-10% growth inhibition rate; Level 0: no effect. The settings on record: 5-6 leaf stage, 15 g/ha, observe time 25 day. The protocol:
as §1

Another data set deals with Echinochloa crus-galli. Kind of data set: Control experiment, test in post-emergence stage. The arrangement: key: Level 10: completely dead; Level 9: above 90% growth inhibition rate; Level 8: above 80% growth inhibition rate; Level 7: above 70% growth inhibition rate; Level 6: above 60% growth inhibition rate; Level 5: above 50% growth inhibition rate; Level 4: above 30% growth inhibition rate; Level 3: above 20% growth inhibition rate; Level 2: above 10% growth inhibition rate; Level 1: above 1-10% growth inhibition rate; Level 0: no effect. Particulars: 5-6 leaf stage, 15 g/ha, observe time 25 day. Here is the method: as §1

In data set [1] the test system is main crop (wheat, corn, rice, soybean, cotton, oilseed, millet and sorghum). Kind of data set: Post-emergence test experiment, main crops (Table 2). The arrangement: key: Level 10: completely dead; Level 9: above 90% growth inhibition rate; Level 8: above 80% growth inhibition rate; Level 7: above 70% growth inhibition rate; Level 6: above 60% growth inhibition rate; Level 5: above 50% growth inhibition rate; Level 4: above 30% growth inhibition rate; Level 3: above 20% growth inhibition rate; Level 2: above 10% growth inhibition rate; Level 1: above 1-10% growth inhibition rate; Level 0: no effect. Particulars: 3 weeks after spraying, greenhouse. The procedure, abridged:
(§2)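 Compounds, dissolved in acetone, mixed with Tween 80 and diluted in water, were sprayed post-emergence onto greenhouse-grown weeds and crops at the 2-3 leaf stage (2-3 weeks post-sowing). Plants then grown 3 more weeks in the greenhouse before evaluation.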

Data set [2] concerns Monocotyledonous and dicotyledonous weed. The data set can be described thus: Post-emergence test experiment, weed control effect (Table 2). Further details: key to weed control effect, Setaria viridis (level) / weed control effect, Rorippa indica (level) / weed control effect, Abutilon theophrasti (level) / weed control effect, Echinochloa crus-galli (level) / weed control effect, Digitaria sanguinalis (level): Level 10: completely dead; Level 9: above 90% growth inhibition rate; Level 8: above 80% growth inhibition rate; Level 7: above 70% growth inhibition rate; Level 6: above 60% growth inhibition rate; Level 5: above 50% growth inhibition rate; Level 4: above 30% growth inhibition rate; Level 3: above 20% growth inhibition rate; Level 2: above 10% growth inhibition rate; Level 1: above 1-10% growth inhibition rate; Level 0: no effect. The settings on record: 3 weeks after spraying, greenhouse. The procedure, abridged:
as §2

The test system of data set [3] is Echinochloa crus-galli, Scirpus juncoides and Monochoria vaginalis. The data set can be described thus: Resistance tests on the collected weed seeds. Particulars: common rate; seeds collected from Heilongjing and Jiangsu Province of China. The text has this: The seeds of Echinochloa crus-galli, Scirpus juncoides and Monochoria vaginalis were collected from Heilongjing and Jiangsu Province of China.

Each structure is given as a SMILES string.

On to `COCc1c(S(C)(=O)=O)ccc(C(=O)c2c(C)nn(C)c2O)c1Cl` [A, reference compound], for which the “Corn (safety, activity level)” value in the data set with Corn is recorded as 1 (Level 1: above 1-10% growth inhibition rate). Besides, the “Digitaria sanguinalis (activity level)” value in the data set on Digitaria sanguinalis is reported as 6 (Level 6: above 60% growth inhibition rate). Further, the “Setaria viridis (activity level)” value with Setaria viridis was 7 (Level 7: above 70% growth inhibition rate). For the same compound, the “Echinochloa crus-galli (activity level)” value in the data set on Echinochloa crus-galli was 7 (Level 7: above 70% growth inhibition rate).

As for `Cc1nn(C)c(O)c1C(=O)c1ccc(S(C)(=O)=O)c(COCC(F)(F)F)c1Cl` [B, reference compound], in the data set with Corn, the “Corn (safety, activity level)” value turned out to be 0. The “Digitaria sanguinalis (activity level)” value in the data set with Digitaria sanguinalis is 5 (Level 5: above 50% growth inhibition rate). In the data set with Setaria viridis, the “Setaria viridis (activity level)” value is recorded as 7 (Level 7: above 70% growth inhibition rate). Moreover, the “Echinochloa crus-galli (activity level)” value with Echinochloa crus-galli is on record as 6 (Level 6: above 60% growth inhibition rate).

Take `COCc1c(S(C)(=O)=O)ccc(C(=O)c2c(C)nn(C)c2OC(=O)c2cn(C)nc2C)c1Cl` [Compound 26]: in data set [1] (30 g/ha), the “effect on crop, corn (level)” value is on record as 1 (Level 1: above 1-10% growth inhibition rate); the “effect on crop, rice (level)” value was 5 (Level 5: above 50% growth inhibition rate); the “effect on crop, wheat (level)” value worked out at 0. In addition, the “Corn (safety, activity level)” value in the data set with Corn came to 0. Besides, in data set [2] (30 g/ha), the “weed control effect, Abutilon theophrasti (level)” value is 7 (Level 7: above 70% growth inhibition rate); the “weed control effect, Bidens pilosa (level)” value is 8 (Level 8: above 80% growth inhibition rate); the “weed control effect, Digitaria sanguinalis (level)” value is on record as 10; the “weed control effect, Echinochloa crus-galli (level)” value is 10. Also, in data set [2] (30 g/ha), the “weed control effect, Rorippa indica (level)” value was 8 (Level 8: above 80% growth inhibition rate) and the “weed control effect, Setaria viridis (level)” value worked out at 10. Besides, in the data set with Digitaria sanguinalis, the “Digitaria sanguinalis (activity level)” value was determined as 10. Moreover, the “Setaria viridis (activity level)” value with Setaria viridis came out at 10. Further, the “Echinochloa crus-galli (activity level)” value in the data set with Echinochloa crus-galli is 10.

Consider `Cc1nn(C)cc1C(=O)Oc1c(C(=O)c2ccc(S(C)(=O)=O)c(COCC(F)(F)F)c2Cl)c(C)nn1C` [Compound 29], for which, in data set [1] (15 g/ha), the “effect on crop, corn (level)” value came to 0; the “effect on crop, rice (level)” value is on record as 3 (Level 3: above 20% growth inhibition rate); the “effect on crop, wheat (level)” value turned out to be 0. Also, the “Corn (safety, activity level)” value with Corn was found to be 0. Moreover, in data set [2] (15 g/ha), the “weed control effect, Abutilon theophrasti (level)” value was 8 (Level 8: above 80% growth inhibition rate); the “weed control effect, Bidens pilosa (level)” value is given as 5 (Level 5: above 50% growth inhibition rate); the “weed control effect, Digitaria sanguinalis (level)” value is 9 (Level 9: above 90% growth inhibition rate); the “weed control effect, Echinochloa crus-galli (level)” value is 8 (Level 8: above 80% growth inhibition rate). Besides, in data set [2] (15 g/ha), the “weed control effect, Rorippa indica (level)” value is given as 4 (Level 4: above 30% growth inhibition rate) and the “weed control effect, Setaria viridis (level)” value is given as 10. For the same compound, in the data set with Digitaria sanguinalis, the “Digitaria sanguinalis (activity level)” value worked out at 10. For the same compound, in the data set with Setaria viridis, the “Setaria viridis (activity level)” value is 9 (Level 9: above 90% growth inhibition rate). Moreover, in the data set with Echinochloa crus-galli, the “Echinochloa crus-galli (activity level)” value is 8 (Level 8: above 80% growth inhibition rate).

For `CCOC(=O)c1cnn(C)c1S(=O)(=O)NC(=O)Nc1nc(OC)cc(OC)n1` [pyrazosulfuron-ethyl], the “Resistance of the weeds to the herbicide” value in data set [3] is “resistant”.

These data come from patent US10556888B2, “Pyrazole compounds or salts thereof, preparation methods therefor, herbicidal compositions and use thereof” (QINGDAO KINGAGROOT CHEMICAL COMPOUNDS CO., LTD, priority 2015, dated 2020).
